Earlier results as cited in patent US20200357489A1, “DEEP LEARNING-BASED QUICK AND PRECISE HIGH-THROUGHPUT DRUG SCREENING SYSTEM” (Shanghai Tongji Hospital, priority 2018, published 2020).
Like-named read-outs stand apart in the source and are kept apart here.

Legend:
[1] = test system: HepG2 cells
[2] = test system: A549 cells

SMILES | efficacy classification ([1]; 5 μg/ml Cur) | efficacy classification ([1]; 10 μg/ml Cur) | efficacy classification ([1]; 20 μg/ml Cur) | efficacy classification ([2]; 50 μg/ml VP16) | efficacy classification ([2]; 100 μg/ml VP16) | efficacy classification ([2]; 200 μg/ml VP16)
COc1cc(/C=C/C(=O)CC(=O)/C=C/c2ccc(O)c(OC)c2)ccc1O [Cur, curcumin] | Low effcacy | Moderate | High efficacy |  |  | 
COc1cc([C@@H]2c3cc4c(cc3[C@@H](O[C@@H]3O[C@@H]5CO[C@@H](C)O[C@H]5[C@H](O)[C@H]3O)[C@H]3COC(=O)[C@H]23)OCO4)cc(OC)c1O [VP16, etoposide] |  |  |  | Low effcacy | Moderate | High efficacy
